{
  "source": "patent US20220152060A1",
  "about": "“PHYTOECDYSONES AND THE DERIVATIVES THEREOF FOR USE IN THE TREATMENT OF IMPAIRED LUNG FUNCTION” (BIOPHYTIS, priority 2019, published 2022)",
  "key": {"mdx mice [1]": {"test_system": "mdx mice", "assay": "piston ventilator (FlexiVent) forced oscillation measurement of pulmonary resistance, compliance and elastance", "type": "in vivo", "conditions": "50 mg/kg/day oral", "experimental": "Male mice C57BL/10ScSnJ (healthy mice denoted as “C57Black10” in the figures) and C57BL/10ScSn-Dmdmdx/J (murine model of Duchenne muscular dystrophy, denoted “mdx” in the figures) aged 12 weeks, have been used. The mice have been divided into three groups of 12 mice each: an untreated group of healthy control mice C57Black10, a group of untreated mdx mice (mdx) and a group of mice chronically treated with a dose of 50 mg/kg/day, orally in the drinking water. The respiratory function of all the mice has been evaluated by whole-body plethysmography before the start of the study, (D0) then at 30 days (D30) and 60 days (D60) after the start of the treatment. After two months of treatment, the respiratory function has been invasively evaluated, just before sacrifice of the animal, by piston ventilated controlled by a central control unit (commonly called “computer”), said ventilator using the forced oscillation technique, such as the device known by the name FlexiVent™, in order to determine more directly the mechanical parameters of the respiratory system. In order to determine more directly the mechanical parameters of the respiratory system and the impact of a chronic treatment over a period of two months by BIO101 (D60) on these parameters, the dynamic pulmonary resistance was measured using a piston ventilator system as previously described, in response to increasing doses of metacholine. The mice were anaesthetized and connected by an endotracheal cannula to the piston ventilator system. After the start of mechanical ventilation, each mouse received an intraperitoneal injection of 0.1 mL of a 10 mg/mL rocuronium bromide solution. The animal was ventilated at a respiratory rate of 150 respirations/minute and with a tidal volume of 10 mL/kg against a final positive expiratory pressure of 3 cm H2O. The respiratory mechanisms were evaluated using a forced oscillation maneuver with a duration of 1.2 seconds (2.5 Hz) and a 3-second wideband forced oscillation man oeuvre containing 13 primordial frequencies between 1 and 20.5 Hz. The resistance of the respiratory system (R) was calculated using a microcomputer type central processing unit connected to the piston ventilator system and comprising, in particular, software for performing said calculation. The two maneuvers were carried out alternately every 15 seconds after each nebulization with a metacholine aerosol, in order to measure the change in the response time of the bronchoconstriction induced by metacholine. The pulmonary resistance, compliance and elastance could thus be determined."}, "mdx mice [2]": {"test_system": "mdx mice", "assay": "whole-body plethysmography of respiratory function in response to metacholine", "type": "in vivo", "experimental": "Male mice C57BL/10ScSnJ (healthy mice denoted as “C57Black10” in the figures) and C57BL/10ScSn-Dmdmdx/J (murine model of Duchenne muscular dystrophy, denoted “mdx” in the figures) aged 12 weeks, have been used. The mice have been divided into three groups of 12 mice each: an untreated group of healthy control mice C57Black10, a group of untreated mdx mice (mdx) and a group of mice chronically treated with a dose of 50 mg/kg/day, orally in the drinking water. The respiratory function of all the mice has been evaluated by whole-body plethysmography before the start of the study, (D0) then at 30 days (D30) and 60 days (D60) after the start of the treatment. After two months of treatment, the respiratory function has been invasively evaluated, just before sacrifice of the animal, by piston ventilated controlled by a central control unit (commonly called “computer”), said ventilator using the forced oscillation technique, such as the device known by the name FlexiVent™, in order to determine more directly the mechanical parameters of the respiratory system. In order to precisely monitor the change in respiratory function over the course of the treatment, whole-body plethysmography analyses (Emka Technologies, Paris, France) have been performed on the healthy control mice C57Black10, on the untreated mdx mice and on the mdx mice having been treated with BIO101. The advantages of this technique reside in the fact that it allows monitoring to be performed on an awake animal, freely moving in a hermetic enclosure, and that this is performed in a non-invasive manner. Consequently, the stress due to handling of the animals is reduced as it is possible to repeat the measurements over prolonged periods. Barometric plethysmography is therefore frequently used for measuring bronchial reactivity in small animals (Chong et al., 1998; Djuric et al., 1998; Hoffman et al., 1999). The pressure variations measured with respect to a reference chamber make it possible to define various respiratory parameters such as the peaks and times of inspiratory and expiratory pressure as well as a dimensionless quantity called Penh (enhanced Pause) which allows the bronchoconstriction to be evaluated. More specifically, the Penh, calculated from the pressure signal (Pb) in the chamber, is an important index to obtain, because the variations in Penh change in parallel with those of the respiratory resistance and it therefore represents a predictive parameter for changes in the resistive properties of the respiratory system (Hamelmann et al., 1997; Bergren, 2001; Onclinx et al., 2003). The following values have been calculated from the filtered Pb: the maximum variation in Pb during expiration (PEP: Peak Expiratory Pressure), the maximum change in Pb during inspiration (PIP: Peak Inspiratory Pressure) and the time interval (TR). The Penh value has then been calculated as follows: […] [Math. 1] where Pause=(TE−TR)/TE [Math. 2] • TE being the expiration time (Adler et al., 2004). Moreover, the peak inspiratory flow (PIF) and the peak expiratory flow (PEF), the relaxation time (RT) and the respiratory rate (BF) have also been measured and shown. The Penh value has been measured before the start of the treatment (D0), 30 days after the start of the treatment (D30) and 60 days after the treatment (D60). First, the entire cohort of mdx mice (n=24) were compared with healthy mice C57Black10 (n=12), before receiving the treatment. Awake mice were exposed to increasing doses of metacholine aerosols generated by a nebulizer containing 0 to 40 mg/mL of metacholine in PBS."}},
  "data": [
    {"smiles": "CC(C)(O)CC[C@@H](O)[C@](C)(O)[C@H]1CC[C@@]2(O)C3=CC(=O)[C@@H]4C[C@@H](O)[C@@H](O)C[C@]4(C)[C@H]3CC[C@]12C", "note": "[BIO101, 20-hydroxyecdysone]", "values": [
      {"measurement": "resistance of the airways (pulmonary resistance)", "setting": "mdx mice [1]; 60 days, metacholine 0 to 20 mg/mL, vs untreated mdx mice, p<0.0001", "value": "significantly lower resistance of the airways"},
      {"measurement": "pulmonary compliance", "setting": "mdx mice [1]; D60, metacholine 20 mg/mL, untreated mdx 0.017, healthy 0.031 (FIG. 8B)", "value": 0.029, "unit": "mL/cmH2O"},
      {"measurement": "pulmonary elastance", "setting": "mdx mice [1]; D60, metacholine 20 mg/mL, untreated mdx 34.8, healthy 62.8 as printed (FIG. 8C)", "value": 69.1, "unit": "cmH2O/mL"},
      {"measurement": "pulmonary compliance, change at increasing metacholine doses", "setting": "mdx mice [1]; two months, p<0.0001 (FIG. 7B)", "value": "significantly improved"},
      {"measurement": "pulmonary elastance, change at increasing metacholine doses", "setting": "mdx mice [1]; two months, p<0.0001 (FIG. 7C)", "value": "significantly improved"},
      {"measurement": "relaxation time", "setting": "mdx mice [2]; 50 mg/kg/day oral, 30 days, compared with untreated mdx mice, p<0.05 (FIG. 3D)", "value": "clear improvement in relaxation time"},
      {"measurement": "peak inspiratory flow (cited to FIG. 3B)", "setting": "mdx mice [2]; 50 mg/kg/day oral, 30 days, in comparison to D0", "value": "remain unchanged"},
      {"measurement": "respiratory rate", "setting": "mdx mice [2]; 50 mg/kg/day oral, 30 days, in comparison to D0 (FIG. 3E)", "value": "remain unchanged"},
      {"measurement": "peak inspiratory flow (cited to FIG. 3C)", "setting": "mdx mice [2]; 50 mg/kg/day oral, 30 days, in particular equilibrium state or low metacholine dose, p<0.05", "value": "increase in peak inspiratory flow"},
      {"measurement": "peak expiratory flow", "setting": "mdx mice [2]; 50 mg/kg/day oral, 60 days", "value": "remain unchanged"},
      {"measurement": "relaxation time", "setting": "mdx mice [2]; 50 mg/kg/day oral, 60 days (FIG. 4D)", "value": "trend towards improved relaxation time"},
      {"measurement": "respiratory rate", "setting": "mdx mice [2]; 50 mg/kg/day oral, 60 days (FIG. 4E)", "value": "remain unchanged"},
      {"measurement": "peak inspiratory flow", "setting": "mdx mice [2]; 50 mg/kg/day oral, 60 days, p<0.05 (FIG. 4B)", "value": "significant improvement"},
      {"measurement": "mean Penh value", "setting": "mdx mice [2]; 50 mg/kg/day oral, D60, metacholine dose of 40 mg/mL, untreated mdx 4, healthy 1.04 (FIG. 6B)", "value": 1.87},
      {"measurement": "Penh in response to metacholine", "setting": "mdx mice [2]; 50 mg/kg/day oral, after 60 days of treatment, compared to untreated mdx mice, p<0.0001 (FIG. 4A)", "value": "significant reduction in the Penh"},
      {"measurement": "Penh in response to metacholine", "setting": "mdx mice [2]; 50 mg/kg/day orally in drinking water, after 30 days of treatment, compared to mdx mice at D0, p<0.001 (FIG. 3A)", "value": "significant reduction in Penh"}
    ]}
  ]
}
